According to publication PMC9299836 (eLife, 2022):
Several values for one entry are separate records, joined by “and”; a condition that tells them apart may be missing. Equal values may be shown once.

Legend:
mGluR2 [1] = target: mGluR2 (Mus musculus, UniProt Q14BI2, A548F); assay: Live-cell FRET, azi-CRD (cysteine-rich domain) sensor in HEK293T cells; details: for azi-CRD normalized FRET response, Mean / azi-CRD normalized FRET response, individual cell: Glutamate + 10μM modulator (NAM); for azi-CRD normalized FRET response, Mean: maximal response normalized to 1mM glutamate; for azi-CRD normalized FRET response, individual cell: single-cell replicate
Chain of mGluR2 (Mus musculus, UniProt Q14BI2, A548F) (Q14BI2 19-872 A548F): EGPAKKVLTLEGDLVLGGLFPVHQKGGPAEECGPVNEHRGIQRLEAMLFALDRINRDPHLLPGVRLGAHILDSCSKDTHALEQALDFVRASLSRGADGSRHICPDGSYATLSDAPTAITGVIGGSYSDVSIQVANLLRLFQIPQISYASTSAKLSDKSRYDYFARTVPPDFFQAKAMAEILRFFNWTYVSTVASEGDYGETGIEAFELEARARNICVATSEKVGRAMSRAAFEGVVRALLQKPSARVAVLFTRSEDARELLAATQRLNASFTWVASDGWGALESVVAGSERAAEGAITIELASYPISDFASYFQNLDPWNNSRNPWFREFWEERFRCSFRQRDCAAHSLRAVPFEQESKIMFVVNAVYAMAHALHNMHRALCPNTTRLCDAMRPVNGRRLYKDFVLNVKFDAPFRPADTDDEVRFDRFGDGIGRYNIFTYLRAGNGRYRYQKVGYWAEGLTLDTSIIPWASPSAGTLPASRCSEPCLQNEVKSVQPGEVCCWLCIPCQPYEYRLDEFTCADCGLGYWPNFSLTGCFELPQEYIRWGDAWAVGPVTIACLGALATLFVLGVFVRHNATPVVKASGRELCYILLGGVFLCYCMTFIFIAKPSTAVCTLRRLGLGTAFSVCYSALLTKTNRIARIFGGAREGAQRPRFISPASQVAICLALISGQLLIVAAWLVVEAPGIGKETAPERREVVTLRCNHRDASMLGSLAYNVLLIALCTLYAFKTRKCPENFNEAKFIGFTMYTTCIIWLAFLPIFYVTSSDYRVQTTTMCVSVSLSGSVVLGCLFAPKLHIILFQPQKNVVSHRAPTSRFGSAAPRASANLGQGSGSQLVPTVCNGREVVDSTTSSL

mGluR2 [2] = target: mGluR2 (Mus musculus, UniProt Q14BI2); assay: Live-cell FRET, SNAP-m2 (VFT domain) inter-subunit sensor in HEK293T cells; details: for Mean normalized FRET response, SNAP-m2 NAM DRC: glutamate + 10μM modulator, maximal response normalized to 1mM glutamate;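 on all read-outs here: apparent FRET efficiency from whole-membrane ROIs of single cells, corrected for donor bleed-through and background, ΔFRET as treatment minus pretreatment signal, recorded at room temperature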
Chain of mGluR2 (Mus musculus, UniProt Q14BI2) (Q14BI2 19-872): as the sequence (Q14BI2 19-872 A548F) above, with F530A counted along it

mGluR2 [3] = target: mGluR2 (Mus musculus, UniProt Q14BI2, INS715F); assay: Live-cell FRET, azi-ECL2 (7TM domain, extracellular loop 2) sensor in HEK293T cells; details: for Mean normalized azi-ECL2 FRET response: glutamate + 10μM modulator, maximal response normalized to 1mM glutamate;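 on all read-outs here: Cy3/Cy5 click-labeled sensor, whole-membrane ROIs per cell, apparent FRET after bleed-through correction, ΔFRET as treatment minus pre-treatment signal, at room temperature, at least three biological replicates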
Chain of mGluR2 (Mus musculus, UniProt Q14BI2, INS715F) (Q14BI2 with tags, fused parts or gaps INS715F): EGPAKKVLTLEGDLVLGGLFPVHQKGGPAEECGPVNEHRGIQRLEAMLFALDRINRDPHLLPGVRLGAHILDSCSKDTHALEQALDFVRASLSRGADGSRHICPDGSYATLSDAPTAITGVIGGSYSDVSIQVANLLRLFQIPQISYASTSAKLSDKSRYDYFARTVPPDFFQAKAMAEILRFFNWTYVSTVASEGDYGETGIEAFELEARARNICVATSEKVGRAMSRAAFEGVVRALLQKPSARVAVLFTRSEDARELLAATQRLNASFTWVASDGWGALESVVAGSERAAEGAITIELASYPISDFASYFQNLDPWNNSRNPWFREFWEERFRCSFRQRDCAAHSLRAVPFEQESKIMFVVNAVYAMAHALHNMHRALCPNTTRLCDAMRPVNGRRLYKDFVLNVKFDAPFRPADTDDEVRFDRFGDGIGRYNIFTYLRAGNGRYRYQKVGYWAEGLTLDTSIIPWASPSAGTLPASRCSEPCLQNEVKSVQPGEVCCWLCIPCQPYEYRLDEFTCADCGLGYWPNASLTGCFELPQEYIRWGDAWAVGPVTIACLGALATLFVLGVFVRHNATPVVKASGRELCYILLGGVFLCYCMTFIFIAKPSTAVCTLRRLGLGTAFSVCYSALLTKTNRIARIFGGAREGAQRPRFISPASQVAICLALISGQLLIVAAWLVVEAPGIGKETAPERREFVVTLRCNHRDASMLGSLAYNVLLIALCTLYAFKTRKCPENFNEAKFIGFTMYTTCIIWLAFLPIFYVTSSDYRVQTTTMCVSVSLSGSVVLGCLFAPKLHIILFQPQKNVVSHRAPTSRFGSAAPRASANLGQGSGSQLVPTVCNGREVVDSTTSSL

[4] = 10μM MNI-137, ([1 mM glutamate + modulator] - [1 mM glutamate]) × 100

MNI-137
azi-CRD - ΔEfficacy, Mean ΔEfficacy (mGluR2 [1]; [4]): -14.0141 | azi-CRD - ΔEfficacy, individual cell responses (mGluR2 [1]; 10μM MNI-137, single cells): -19.4456 and -7.384 and -10.1516 and 1.621 and -9.317 and -10.1717 and -14.3919 and -15.5722 and -14.8125 and -10.0435 and -13.9489 and -17.5047 and -9.853 and -8.072 and -15.0625 and -34.4877 and -19.6812 and -23.9757 | azi-CRD normalized FRET response, Mean (mGluR2 [1]; log[Glutamate] (M) -3): 0.8599 | azi-CRD normalized FRET response, Mean (mGluR2 [1]; log[Glutamate] (M) -4.52288): 0.6022 | azi-CRD normalized FRET response, Mean (mGluR2 [1]; log[Glutamate] (M) -5): 0.3809 | azi-CRD normalized FRET response, Mean (mGluR2 [1]; log[Glutamate] (M) -5.39794): 0.1786 | azi-CRD normalized FRET response, individual cell (mGluR2 [1]; log[Glutamate] (M) -5.39794): 0.1624 and 0.1634 and 0.1646 and 0.1674 and 0.1243 and 0.1237 and 0.1526 and 0.2062 and 0.1399 and 0.1742 and 0.1692 and 0.2509 and 0.1433 and 0.1979 and 0.2166 and 0.2171 and 0.2594 and 0.1653 and 0.2159 and 0.1911 and 0.1708 and 0.1695 and 0.153 | azi-CRD normalized FRET response, Mean (mGluR2 [1]; log[Glutamate] (M) -5.82391): 0.06813 | azi-CRD normalized FRET response, individual cell (mGluR2 [1]; log[Glutamate] (M) -5.82391): 0.04445 and 0.05893 and 0.04553 and 0.06348 and 0.04636 and 0.04299 and 0.07924 and 0.06124 and 0.04784 and 0.04123 and 0.06211 and 0.06632 and 0.1186 and 0.05696 and 0.08797 and 0.1273 and 0.06713 and 0.0889 and 0.0871 and 0.09832 and 0.05971 and 0.05629 and 0.07113 and 0.07112 and 0.06208 and 0.06258 and 0.06477 | azi-CRD normalized FRET response, Mean (mGluR2 [1]; log[Glutamate] (M) -6.52288): 0.03124 | azi-CRD normalized FRET response, individual cell (mGluR2 [1]; log[Glutamate] (M) -6.52288): 0.0188 and 0.01987 and 0.01609 and 0.02693 and 0.05479 and 0.05033 and 0.00719 and 0.0225 and 0.06219 and 0.01914 and 0.02051 and 0.02647 and 0.05278 and 0.03127 (2×) and 0.02714 and 0.04081 and 0.0402 and 0.04434 and 0.02897 and 0.03138 and 0.03664 and 0.02295 | azi-CRD normalized FRET response, Mean (mGluR2 [1]; log[Glutamate] (M) -7): 0 | azi-CRD normalized FRET response, individual cell (mGluR2 [1]; log[Glutamate] (M) -7): 0 | Hill slope of glutamate titration (mGluR2 [1]; azi-CRD sensor, + 10 μM modulator): 1.10 | Live-cell FRET max response normalized to 1mM glutamate (mGluR2 [1]; azi-CRD sensor, Glutamate + 10μM MNI-137, individual values (N=18)): 0.9068 and 0.8983 and 0.8561 and 0.8443 and 0.8519 and 0.8996 and 0.8605 and 0.8249 and 0.9015 and 0.9193 and 0.8494 and 0.6551 and 0.8032 and 0.7602 and 0.8055 and 0.9262 and 0.8985 and 1.016 | Mean max response (normalized max ΔFRET) (mGluR2 [1]; azi-CRD, 1 mM glutamate + 10 μM modulator, normalized to 1 mM glutamate): 0.86 | Mean ΔPotency (mGluR2 [1]; azi-CRD, 10μM modulator, (([modulator + glutamate]EC50 – [glutamate] EC50)/[glutamate] EC50) × 100): 19.3799 | ΔPotency, individual cell (mGluR2 [1]; azi-CRD, 10μM modulator, calculated from individual cell responses): 8.099 and 2.046 and -1.414 and 21.9358 and 9.829 and 20.2062 and 22.8006 and -4.008 and 2.91 and 8.964 and 24.5302 and 18.4766 and 6.37 and 10.6935 and 59.9867 and 17.6119 and -18.5365 and 122.252 and 0.316 and -3.143 and -10.9263 and 95.4432 and 15.0175 | SNAP-m2 - ΔEfficacy, Mean ΔEfficacy (mGluR2 [2]; [4]): -14.5253 | SNAP-m2 - ΔEfficacy, individual cell responses (mGluR2 [2]; 10μM MNI-137, single cells): -10.7213 and -26.7573 and -13.8479 and -17.3754 and -14.1858 and -21.1325 and -12.0197 and -12.3419 and -6.834 and -6.212 and -2.3686 and -0.3026 and -3.79 and -23.2696 and -18.431 and -18.5097 and -23.731 and -16.2088 and -24.4772 and -17.7281 and -7.524 and -21.7885 | Mean max response (normalized max ΔFRET) (mGluR2 [2]; SNAP-m2, 1 mM glutamate + 10 μM modulator, normalized to 1 mM glutamate): 0.85 | Mean ΔPotency (mGluR2 [2]; SNAP-m2, 10μM modulator, (([modulator + glutamate]EC50 – [glutamate] EC50)/[glutamate] EC50) × 100): 44.8085 | Mean ΔEfficacy (mGluR2 [2]; SNAP-m2, 10μM modulator, ([1 mM glutamate + modulator] - [1 mM glutamate]) × 100): -14.5253 | Hill slope of glutamate titration (mGluR2 [2]; SNAP-m2 sensor, + 10 μM modulator): –1.61 | Live-cell FRET max response normalized to 1mM glutamate (mGluR2 [2]; SNAP-m2 sensor, Glutamate + 10μM MNI-137, individual values (N=22)): 0.8581 and 0.7887 and 0.8798 and 0.8766 and 0.9317 and 0.9379 and 0.9763 and 0.997 and 0.9621 and 0.7673 and 0.8157 and 0.8149 and 0.7627 and 0.8379 and 0.7552 and 0.8227 and 0.9248 and 0.7821 and 0.8928 and 0.7324 and 0.8615 and 0.8263 | Mean normalized FRET response, SNAP-m2 NAM DRC (mGluR2 [2]; log[Glutamate] (M) -3): -0.8548 | Mean normalized FRET response, SNAP-m2 NAM DRC (mGluR2 [2]; log[Glutamate] (M) -4.1549): -0.777 | Mean normalized FRET response, SNAP-m2 NAM DRC (mGluR2 [2]; log[Glutamate] (M) -4.52288): -0.6231 | Mean normalized FRET response, SNAP-m2 NAM DRC (mGluR2 [2]; log[Glutamate] (M) -5): -0.2568 | Mean normalized FRET response, SNAP-m2 NAM DRC (mGluR2 [2]; log[Glutamate] (M) -5.82391): -0.04212 | Mean normalized FRET response, SNAP-m2 NAM DRC (mGluR2 [2]; log[Glutamate] (M) -6.52288): 0 | Mean normalized FRET response, SNAP-m2 NAM DRC (mGluR2 [2]; log[Glutamate] (M) -7): 0 | Mean normalized FRET response, SNAP-m2 NAM DRC (mGluR2 [2]; log[Glutamate] (M) -7.69897): 0 | Mean normalized FRET response, SNAP-m2 NAM DRC (mGluR2 [2]; log[Glutamate] (M) -4.69897): -0.4828 | azi-ECL2 - ΔEfficacy, Mean ΔEfficacy (mGluR2 [3]; [4]): -22.0861 | Mean ΔPotency (mGluR2 [3]; 10μM modulator, (([modulator + glutamate]EC50 – [glutamate] EC50)/[glutamate] EC50) × 100): 179.936 | ΔPotency, individual cell responses (mGluR2 [3]; 10μM modulator, single cells, (([modulator + glutamate]EC50 – [glutamate] EC50)/[glutamate] EC50) × 100): 208.526 and 269.842 and 265.754 and 289.307 and 19.9066 and 99.1307 and 118.401 and 168.622 | Mean max response (normalized max ΔFRET) (mGluR2 [3]; azi-ECL2, 1 mM glutamate + 10 μM modulator, normalized to 1 mM glutamate): 0.78 | Hill slope of glutamate titration (mGluR2 [3]; azi-ECL2 sensor, + 10 μM modulator): 1.32 | Mean normalized azi-ECL2 FRET response (mGluR2 [3]; log[Glutamate] (M) -3): 0.7791 | Mean normalized azi-ECL2 FRET response (mGluR2 [3]; log[Glutamate] (M) -4.1549): 0.6793 | Mean normalized azi-ECL2 FRET response (mGluR2 [3]; log[Glutamate] (M) -4.52288): 0.5808 | Mean normalized azi-ECL2 FRET response (mGluR2 [3]; log[Glutamate] (M) -5): 0.314
